≈ marks a conversion by molar mass, not a printed value. Like-named read-outs stand apart in the source and are kept apart here.
What was measured:
Mtb AccD6 = Mtb AccD6 (Mycobacterium tuberculosis, UniProt P9WQH5); assay: biochemical; format: biochemical; conditions: for IC50: 300 μM malonyl-CoA, inhibitor 10 μM to 2000 μM
Mtb strain mc^2-7000 = assay: microbe, parasite or virus in culture; format: cell-based, Mycobacterium tuberculosis; conditions: 6 days incubation at 37° C., resazurin, read on the 7th day
[1] = Pharmacokinetic studies in mice, plasma concentration after gavage (LC/MS); conditions: for peak plasma concentration, 30 minutes after gavage / peak plasma concentration, 90 minutes after gavage: 100 mg/kg gavage, PEG or canola oil; for Plasma conc. 24 Hrs. after 1st dose / Plasma conc. 24 Hrs. after last dose: oral, 1 dose/day x 4 days, NZ-331 200 mg/kg, NZ-332 and NZ-369 100 mg/kg; for peak plasma concentration (FIG. 6A): two doses 200 mg/kg 8 h apart, approx. 12 hours after first dose, 4 hours after second
[2] = Mycobacterium tuberculosis, 144 h, read-out: MIC

Sequence of Mtb AccD6 (P9WQH5 whole entry, looked up): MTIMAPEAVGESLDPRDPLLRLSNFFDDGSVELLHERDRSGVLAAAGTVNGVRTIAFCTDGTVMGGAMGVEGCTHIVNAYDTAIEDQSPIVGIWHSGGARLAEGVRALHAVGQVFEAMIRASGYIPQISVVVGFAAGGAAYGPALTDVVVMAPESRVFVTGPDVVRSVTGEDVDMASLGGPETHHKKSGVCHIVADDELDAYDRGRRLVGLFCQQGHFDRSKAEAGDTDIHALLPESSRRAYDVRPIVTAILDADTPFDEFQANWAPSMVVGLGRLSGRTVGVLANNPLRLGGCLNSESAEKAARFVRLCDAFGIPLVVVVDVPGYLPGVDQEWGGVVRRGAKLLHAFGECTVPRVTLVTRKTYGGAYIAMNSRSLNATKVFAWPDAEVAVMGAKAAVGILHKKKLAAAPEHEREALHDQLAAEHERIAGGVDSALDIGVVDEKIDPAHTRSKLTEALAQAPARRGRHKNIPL

Structure (SMILES) | IC50 (Mtb AccD6; read-out: IC50) | MIC (Mtb strain mc^2-7000; [2]) | concentrations at which not toxic, s. cerevisiae cytotoxicity (S. cerevisiae) | concentrations at which not toxic, human fibroblast cytotoxicity (human fibroblast) | also measured
CC(C)NC(=O)Nc1ccc(Oc2nc3ccc(F)cc3s2)cc1 [NZ-332, 1-{4-[(6-fluoro-1,3-benzothiazol-2-yl)oxy]phenyl}-3-(propan-2-yl)urea] | 650 nM | 0.8 µM (≈ 0.276 µg/mL) | ≥ 100 µM | ≥ 100 µM | peak plasma concentration, 30 minutes after gavage [1]: approximately 9 μL/mg; peak plasma concentration, 90 minutes after gavage [1]: 13; Plasma conc. 24 Hrs. after 1st dose ([1]; canola oil): 2.2 (±0.6) μg/ml; Plasma conc. 24 Hrs. after last dose ([1]; canola oil): 1.8 (±0.2) μg/ml; peak plasma concentration (FIG. 6A) ([1]; canola oil, gavage): approximately 34 μL/mg
CNC(=O)C(C)c1ccc(Oc2nc3ccc(Cl)cc3s2)cc1 (stereo not shown) [NZ-369, 2-{4-[(6-chloro-1,3-benzothiazol-2-yl)oxy]phenyl}-N-methylpropanamide] | 870 nM | 0.73 to 0.98 µM (≈ 0.253 to 0.34 µg/mL) | ≥ 100 µM | ≥ 100 µM | Plasma conc. 24 Hrs. after 1st dose ([1]; canola oil): 0.74 (±0.09) μg/ml; Plasma conc. 24 Hrs. after last dose ([1]; canola oil): 0.57 (±0.07) μg/ml; peak plasma concentration (FIG. 10) ([1]; single dose 200 mg/kg, canola oil, gavage, 2 hours after gavage): 27.4; peak plasma concentration (FIG. 11), 2 hours ([1]; two doses 200 mg/kg 8 hours apart, canola oil, 2 hours after gavage): 27.4
CC(C)NC(=O)Nc1ccc(Oc2nc3ccc(Cl)cc3s2)cc1 [NZ-331, 1-{4-[(6-chloro-1,3-benzothiazol-2-yl)oxy]phenyl}-3-(propan-2-yl)urea] | 800 nM | 0.8 µM (≈ 0.289 µg/mL) | ≥ 100 µM | ≥ 100 µM | peak plasma concentration, 30 minutes after gavage [1]: approximately 6 μL/mg; peak plasma concentration, 90 minutes after gavage [1]: 9; Plasma conc. 24 Hrs. after 1st dose ([1]; canola oil): 17.7 (±2.7) μg/ml; Plasma conc. 24 Hrs. after last dose ([1]; canola oil): 27.1 (±13.7) μg/ml; peak plasma concentration (FIG. 6A) ([1]; canola oil, gavage): approximately 23 μL/mg; peak plasma concentration (FIG. 11), 24 hours ([1]; two doses 200 mg/kg 8 hours apart, canola oil, 24 hours after gavage): 34.5; corrected peak plasma concentration (FIG. 6B) ([1]; two doses 200 mg/kg, canola oil, gavage, approx. 24 hours after first dose, 16 hours after second): approximately 138 μL/mg
CNC(=O)Cc1ccc(Oc2cnc3cc(Cl)ccc3n2)cc1O [NZ-402, 2-{4-[(6-chloroquinoxalin-2-yl)oxy]-2-hydroxyphenyl}-N-methylacetamide] | 210 nM | 2.16 µM (≈ 0.743 µg/mL) | ≥ 100 µM | ≥ 100 µM | 
CC(C(=O)O)c1ccc(Oc2nc3ccc(Cl)cc3s2)cc1 (stereo not shown) [NZ-312, 2-{4-[(6-chloro-1,3-benzothiazol-2-yl)oxy]phenyl}propanoic acid] | 260 nM | 6 µM (≈ 2 µg/mL) | ≥ 100 µM | ≥ 100 µM | 
O=C(O)Cc1ccc(Oc2nc3cc(F)c(F)cc3s2)cc1 [NZ-399, 2-{4-[(5,6-difluoro-1,3-benzothiazol-2-yl)oxy]phenyl}acetic acid] | 180 nM | 1.36 µM (≈ 0.437 µg/mL) | ≥ 100 µM | ≥ 100 µM | 
CC(C)NC(=O)Nc1ccc(Oc2nc3ccc(Cl)cc3s2)c[n+]1[O-] [NZ-391, 1-{5-[(6-chloro-1,3-benzothiazol-2-yl)oxy]-1-oxo-1λ^5-pyridin-2-yl}-3-(propan-2-yl)urea] |  |  | ≥ 100 µM | ≥ 100 µM | IC50 (Mtb AccD6): Not Active; MIC (Mtb strain mc^2-7000): Not Active
CC(C)NC(=O)Nc1ccc(Oc2nc3ccc(C#N)cc3s2)cc1 [NZ-377, 1-{4-[(6-cyano-1,3-benzothiazol-2-yl)oxy]phenyl}-3-(propan-2-yl)urea] | 7900 nM |  | ≥ 100 µM | ≥ 100 µM | MIC (Mtb strain mc^2-7000): Not Active
CNC(=O)Cc1ccc(Oc2nc3ccc(Cl)cc3s2)cc1 [NZ-383, 2-{4-[(6-chloro-1,3-benzothiazol-2-yl)oxy]phenyl}-N-methylacetamide] | 800 to 1170 nM | 3.9 µM (≈ 1.3 µg/mL) | ≥ 100 µM | ≥ 100 µM | 
O=C(COc1ccc(Oc2cnc3cc(Cl)ccc3n2)cc1)NOCC1CC1 [NZ-323, 2-{4-[(6-chloroquinoxalin-2-yl)oxy]phenoxy}-N-(cyclopropylmethoxy)acetamide] | 3600 nM | 6 µM (≈ 2.4 µg/mL) | ≥ 100 µM | ≥ 100 µM | 
CONC(=O)COc1ccc(Oc2nc3ccc(F)cc3s2)cc1 [NZ-305, 2-{4-[(6-fluoro-1,3-benzothiazol-2-yl)oxy]phenoxy}-N-methoxyacetamide] |  | 3 µM (≈ 1.05 µg/mL) | ≥ 100 µM | ≥ 100 µM | inhibition at 15 µM (Mtb AccD6; 15 uM): 50%
CONC(=O)C(C)c1ccc(Oc2cnc3cc(Cl)ccc3n2)cc1 (stereo not shown) [NZ-310, 2-{4-[(6-chloroquinoxalin-2-yl)oxy]phenyl}-N-methoxypropanamide] | 182 nM | 6 µM (≈ 2.15 µg/mL) | ≥ 100 µM | ≥ 100 µM | 
COC(=O)C(C)c1ccc(Oc2cnc3cc(Cl)ccc3n2)cc1 (stereo not shown) [NZ-308, methyl 2-{4-[(6-chloroquinoxalin-2-yl)oxy]phenyl}propanoate] | 8000 nM | 4.5 µM (≈ 1.54 µg/mL) | ≥ 100 µM | ≥ 100 µM | 
CONC(=O)[C@@H](C)Oc1ccc(Oc2cnc3cc(Cl)ccc3n2)cc1 [NZ-295, (2R)-2-{4-[(6-chloroquinoxalin-2-yl)oxy]phenoxy}-N-methoxypropanamide] | 930 nM | 4.5 µM (≈ 1.68 µg/mL) | ≥ 100 µM | ≥ 100 µM | 
CC(C)(Oc1ccc(Oc2nc3ccc(Cl)cc3s2)cc1)C(=O)O [NZ-318, 2-{4-[(6-chloro-1,3-benzothiazol-2-yl)oxy]phenoxy}-2-methylpropanoic acid] | 1500 nM | 12 µM (≈ 4.37 µg/mL) | ≥ 100 µM | ≥ 100 µM | 
CC(C)NC(=O)N(C)c1ccc(Oc2nc3ccc(Cl)cc3s2)cc1 [NZ-388, 1-{4-[(6-chloro-1,3-benzothiazol-2-yl)oxy]phenyl}-1-methyl-3-(propan-2-yl)urea] | 3000 nM | 2.1 µM (≈ 0.789 µg/mL) | ≥ 100 µM | ≥ 100 µM | 
O=C(O)Cc1ccc(Oc2cnc3cc(Cl)ccc3n2)cc1 [NZ-298, 2-{4-[(6-chloroquinoxalin-2-yl)oxy]phenyl}acetic acid] | 280 nM | 25 µM (≈ 7.87 µg/mL) | ≥ 100 µM | ≥ 100 µM | 
CONC(=O)Cc1ccc(Oc2cnc3cc(Cl)ccc3n2)cc1 [NZ-301, 2-{4-[(6-chloroquinoxalin-2-yl)oxy]phenyl}-N-methoxyacetamide] | 265 nM | 12 µM (≈ 4.13 µg/mL) | ≥ 100 µM | ≥ 100 µM | 
CNC(=O)C(C)c1ccc(Oc2nc3cc(Cl)c(Cl)cc3s2)cc1 (stereo not shown) [NZ-394, 2-{4-[(5,6-dichloro-1,3-benzothiazol-2-yl)oxy]phenyl}-N-methylpropanamide] | 980 nM |  | ≥ 100 µM | ≥ 100 µM | MIC (Mtb strain mc^2-7000): Not active
CONC(=O)C(C)(C)Oc1ccc(Oc2nc3ccc(Cl)cc3s2)cc1 [NZ-319, 2-{4-[(6-chloro-1,3-benzothiazol-2-yl)oxy]phenoxy}-N-methoxy-2-methylpropanamide] | 20000 nM | 6 µM (≈ 2.36 µg/mL) | ≥ 100 µM | ≥ 100 µM | 
CC(C)NC(=O)Nc1ccc(Oc2nc3c(F)cccc3s2)cc1 [NZ-374, 1-{4-[(4-fluoro-1,3-benzothiazol-2-yl)oxy]phenyl}-3-(propan-2-yl)urea] |  |  | ≥ 100 µM | ≥ 100 µM | IC50 (Mtb AccD6): Not Active; MIC (Mtb strain mc^2-7000): Not Active
CC(C)NC(=O)Nc1ccc(Oc2nc3cc(F)ccc3s2)cc1 [NZ-373, 1-{4-[(5-fluoro-1,3-benzothiazol-2-yl)oxy]phenyl}-3-(propan-2-yl)urea] | 1660 nM |  | ≥ 100 µM | ≥ 100 µM | MIC (Mtb strain mc^2-7000): Not Active
O=C(O)Cc1ccc(Oc2nc3ccc(F)cc3s2)cc1 [NZ-299, 2-{4-[(6-fluoro-1,3-benzothiazol-2-yl)oxy]phenyl}acetic acid] | 324 nM | 12 µM (≈ 3.64 µg/mL) | ≥ 100 µM | ≥ 100 µM | 
CONC(=O)Cc1ccc(Oc2nc3ccc(Cl)cc3s2)cc1 [NZ-293, 2-{4-[(6-chloro-1,3-benzothiazol-2-yl)oxy]phenyl}-N-methoxyacetamide] | 1000 nM | 3 µM (≈ 1.05 µg/mL) | ≥ 100 µM | ≥ 100 µM | 

From patent US10300071B2, “Compositions and methods for inhibition of mycobacteria” (priority 2014, dated 2019)
